Data on 3 compounds can be found in US9815788B2, “Anti-angiogenic compounds” (University College Dublin National University of Ireland, …, priority 2012, dated 2017).

Test [1] has as its system OE33P radio-sensitive oesophageal adenocarcinoma cells. The experiment in a line: Surviving fraction (colony formation), OE33P. It counts as cell-based, human. The following applies: 10 μM, 24 hours. Here is the method: (§1) OE33P radio-sensitive and OE33R radio-resistant oesophageal adenocarcinoma cells were used to test the effects of the compounds 11B HCl and 11B CC11 HCl on cell survival. Cells were maintained in RPMI media supplemented with 10% foetal calf serum, penicillin (100 U/ml) and streptomycin (100 μg/ml). Cells were seeded in 6 well plates and left to incubate for 24 hours. The media was replaced with solutions containing 10 μM of 11B HCl, 11B CC11 HCl or fresh media as a control. After 24 hours of treatment, media was replaced. When control colonies had grown sufficiently large, the media was disposed and the cells washed with PBS. The cells were fixed with methanol and stained with crystal violet. The surviving fraction, the ability of the cells to form colonies was then determined.
as §1, with “replaced and cells were subjected to 2Gy radiation.” for “replaced.”, “Surviving” for “The surviving”
OE33P radio-sensitive and OE33R radio-resistant oesophageal adenocarcinoma cells were used to test the effects of the compounds 11B HCl and 11B CC11 HCl on cell survival. Cells were maintained in RPMI media supplemented with 10% foetal calf serum, penicillin (100 U/ml) and streptomycin (100 μg/ml). Cells were seeded in 6 well plates and left to incubate for 24 hours. […] Surviving fraction, the ability of the cells to form colonies was then determined.

Test [2] deals with zebrafish intersegmental vessels. Put plainly: Quantification of intersegmental vessel number in zebrafish. The class given is in vivo. The following applies: for inhibition of developmental angiogenesis of intersegmental vessels (number of intersegmental vessels): 10 μM, from 6 hpf; for dose-dependent inhibition of development of intersegmental vessels: decreasing doses 10, 7.5, 5 and/or 1 μM, HCl salt. A digest of the protocol:
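Zebrafish larvae were dechorionated by hand, euthanised, and fixed overnight at 4° C. in 4% PFA before being analysed. Following PBS washes, they were placed on depression slides and examined by epi-fluorescence on an Olympus SZX16 fluorescent microscope. Intersegmental vessels were counted, and the mean count was plotted for each drug.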

For the next test, the target named is T1, CysLT2 receptor (Homo sapiens, UniProt Q9NS75).
T1 construct: host or cells: HEK 293 cells
T1 sequence (Q9NS75 1-346): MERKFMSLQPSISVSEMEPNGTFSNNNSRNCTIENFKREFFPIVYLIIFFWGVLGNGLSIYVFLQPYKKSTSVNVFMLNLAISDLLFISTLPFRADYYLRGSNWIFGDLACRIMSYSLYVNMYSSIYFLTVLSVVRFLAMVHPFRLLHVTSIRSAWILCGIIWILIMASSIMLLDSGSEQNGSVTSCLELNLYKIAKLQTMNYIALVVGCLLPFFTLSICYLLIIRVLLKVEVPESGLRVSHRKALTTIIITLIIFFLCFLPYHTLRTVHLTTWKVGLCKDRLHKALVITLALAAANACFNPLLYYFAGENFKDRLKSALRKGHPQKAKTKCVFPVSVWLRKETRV
Put plainly: CysLT2 calcium mobilisation assay in HEK 293 cells. It counts as cell-based. As to conditions: HEK293, 30 nM LTC4, HEK-293 cells expressing CysLT2, read-out: inhibition of calcium mobilisation (CysLT2 antagonism). Here is the method: FIG. 15 tables the percentage inhibition by compounds 11B_CC11_HCl and 11B_CC16_HCl on the cysteinyl leukotriene pathway in in vitro and ex vivo assays. […] For in vitro cysteinyl leukotriene cell-based assays 11B_CC11_HCl and 11B_CC16_HCl, were tested at 30 μM concentration in duplicate, in a single experiment for their ability to inhibit the calcium mobilisation response of the CysLT1 receptor to 0.1 nM leukotriene D4 in CHO cells over-expressing the CysLT1 receptor or the calcium mobilisation response of the CysLT2 receptor to 30 nM of leukotriene C4 in HEK 293 cells over expressing the CysLT2 receptor.
Target profiling using Cerep and Eurofins/Panlabs profiling screens was undertaken using 11B_CC11_HCl and 11B_CC16_HCl in order to investigate the mechanism of action. […] Test substance (30 LM)-induced isometrically recorded contraction by 50 percent or more within 5 min, relative to control 3 nM leukotriene D4 response, indicates possible cysteinyl-leukotriene LT1 receptor agonist activity. […] To measure inhibition of cysteinyl leukotriene 1 (CysLT1 [LTD4]) and cysteinyl leukotriene 2 (CysLT2 [LTC4]) receptor activity, calcium mobilisation was measured using Fluor-3-loaded CHO cells (for cysLT1 assays) or HEK-293 cells (for CysLT2 assays) which stably express either the CysLT1 or CysLT2 receptors. […]

Structures are written as SMILES. Counter-ions that a name gives are not always drawn.

`Oc1ccccc1/C=C/c1ccc2ccccc2n1` [11B HCl]: the surviving fraction entry in test [1] (no irradiation) is “significantly reduce”; in test [1] (treated prior to 2Gy irradiation), “significantly reduces”.

By inhibition is commonly meant the change of the read-out against control, counted positive when it falls. For the compound `C/C(=C\c1ccccc1O)c1ccc2ccccc2n1.Cl` [Compound 11B_CC11_HCl, (E)-2-(2-Quinolin-2-yl-propenyl)-phenol HCl salt], in test [2], the “inhibition of developmental angiogenesis of intersegmental vessels (number of intersegmental vessels)” value is “inhibit developmental angiogenesis of zebrafish intersegmental vessels in a statistically significant manner” and the “dose-dependent inhibition of development of intersegmental vessels” value is listed as “inhibit developmental angiogenesis of zebrafish intersegmental vessels in a dose-dependent statistically significant manner”. For the same compound, the “dose-dependent inhibition of development of intersegmental vessels” value in test [2] (listed as 11B-CC11 HCl) is on record as “dose-dependent effect”. The surviving fraction entry in test [1] (no irradiation) was “significantly reduce”. The inhibition at 30 µM on CysLT2 receptor was 41%.

Regarding `Cl.Oc1ccccc1/C=C\c1ccc2ccccc2n1` [Compound 11B_Z_HCl, (Z)-2-(2-(Quinolin-2-yl)vinyl) phenol HCl salt], the “inhibition of developmental angiogenesis of intersegmental vessels (number of intersegmental vessels)” value in test [2] is on record as “inhibit developmental angiogenesis of zebrafish intersegmental vessels in a statistically significant manner”.
